According to patent publication US9446039B2, “Aminoheteroaryl compounds as MTH1 inhibitors” (CEMM—FORSCHUNGSZENTRUM FÜR MOLEKULARE MEDIZIN GMBH, priority 2012, dated 2016):

Key:
Type in all cases: binding
[1] = biological target: SW480 colon carcinoma cells lysate proteins (Homo sapiens, UniProt P07355); conditions: PreyGene ANXA2
[2] = biological target: T1, SW480 colon carcinoma cells lysate proteins (Homo sapiens, UniProt P08758); conditions: PreyGene ANXA5
T1 sequence (P08758 1-320): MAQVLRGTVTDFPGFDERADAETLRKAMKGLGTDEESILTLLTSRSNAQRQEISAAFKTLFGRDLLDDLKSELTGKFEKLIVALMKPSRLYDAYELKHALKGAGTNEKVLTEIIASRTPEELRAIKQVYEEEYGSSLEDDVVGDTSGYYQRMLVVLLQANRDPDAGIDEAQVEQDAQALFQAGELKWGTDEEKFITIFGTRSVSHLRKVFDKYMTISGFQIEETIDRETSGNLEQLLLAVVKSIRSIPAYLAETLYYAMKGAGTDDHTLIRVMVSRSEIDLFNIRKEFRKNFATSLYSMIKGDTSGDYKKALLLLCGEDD

[3] = biological target: SW480 colon carcinoma cells lysate proteins (Homo sapiens, UniProt P12814); conditions: PreyGene ACTN1
[4] = biological target: T2, SW480 colon carcinoma cells lysate proteins (Homo sapiens, UniProt P16949); conditions: PreyGene STMN1
T2 sequence (P16949 1-149): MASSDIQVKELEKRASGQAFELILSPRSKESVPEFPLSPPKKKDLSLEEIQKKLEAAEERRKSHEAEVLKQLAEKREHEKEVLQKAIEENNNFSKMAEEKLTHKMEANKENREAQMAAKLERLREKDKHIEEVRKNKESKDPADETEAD

[5] = biological target: SW480 colon carcinoma cells lysate proteins (Homo sapiens, UniProt P30153); conditions: PreyGene PPP2R1A
[6] = biological target: SW480 colon carcinoma cells lysate proteins (Homo sapiens, UniProt P38646); conditions: PreyGene HSPA9
[7] = biological target: SW480 colon carcinoma cells lysate proteins (Homo sapiens, UniProt P55263); conditions: PreyGene ADK
[8] = biological target: T3, SW480 colon carcinoma cells lysate proteins (Homo sapiens, UniProt Q7RTS7); conditions: PreyGene KRT74; SW480 cells
T3 sequence (Q7RTS7 1-529): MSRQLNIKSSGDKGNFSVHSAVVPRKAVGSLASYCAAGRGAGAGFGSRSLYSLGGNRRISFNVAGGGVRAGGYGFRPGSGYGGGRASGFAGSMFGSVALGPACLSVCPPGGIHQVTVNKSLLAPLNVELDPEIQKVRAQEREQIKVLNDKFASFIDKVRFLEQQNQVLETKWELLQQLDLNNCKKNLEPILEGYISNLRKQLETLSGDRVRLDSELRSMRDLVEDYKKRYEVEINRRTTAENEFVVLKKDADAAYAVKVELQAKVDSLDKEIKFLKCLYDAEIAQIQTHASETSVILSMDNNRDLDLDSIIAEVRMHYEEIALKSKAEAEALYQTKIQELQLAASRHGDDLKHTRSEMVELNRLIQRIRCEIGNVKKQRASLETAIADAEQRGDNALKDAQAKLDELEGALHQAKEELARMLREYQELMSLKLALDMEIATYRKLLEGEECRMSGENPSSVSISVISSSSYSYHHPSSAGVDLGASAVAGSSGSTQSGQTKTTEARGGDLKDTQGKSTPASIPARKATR

[9] = biological target: T4, SW480 colon carcinoma cells lysate proteins (Homo sapiens, UniProt Q9NSD9); conditions: PreyGene FARSB
T4 sequence (Q9NSD9 1-589): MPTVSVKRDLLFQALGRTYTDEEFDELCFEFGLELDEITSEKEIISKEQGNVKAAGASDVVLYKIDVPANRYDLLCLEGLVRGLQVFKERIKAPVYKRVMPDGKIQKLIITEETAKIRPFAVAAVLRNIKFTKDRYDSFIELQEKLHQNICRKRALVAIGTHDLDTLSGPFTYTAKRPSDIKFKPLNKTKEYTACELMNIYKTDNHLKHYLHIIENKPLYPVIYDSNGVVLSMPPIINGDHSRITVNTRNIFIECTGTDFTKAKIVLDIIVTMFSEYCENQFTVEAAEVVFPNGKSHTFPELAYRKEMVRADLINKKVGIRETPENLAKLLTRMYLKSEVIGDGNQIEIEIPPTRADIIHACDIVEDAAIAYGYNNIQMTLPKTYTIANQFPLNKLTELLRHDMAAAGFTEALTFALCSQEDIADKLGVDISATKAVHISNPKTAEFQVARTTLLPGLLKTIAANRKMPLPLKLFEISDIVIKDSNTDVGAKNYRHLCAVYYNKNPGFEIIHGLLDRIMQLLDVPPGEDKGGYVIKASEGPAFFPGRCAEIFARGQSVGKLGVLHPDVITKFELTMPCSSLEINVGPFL

SW480 colon carcinoma cells lysate proteins (Homo sapiens, UniProt P55263), sequence (P55263 whole entry): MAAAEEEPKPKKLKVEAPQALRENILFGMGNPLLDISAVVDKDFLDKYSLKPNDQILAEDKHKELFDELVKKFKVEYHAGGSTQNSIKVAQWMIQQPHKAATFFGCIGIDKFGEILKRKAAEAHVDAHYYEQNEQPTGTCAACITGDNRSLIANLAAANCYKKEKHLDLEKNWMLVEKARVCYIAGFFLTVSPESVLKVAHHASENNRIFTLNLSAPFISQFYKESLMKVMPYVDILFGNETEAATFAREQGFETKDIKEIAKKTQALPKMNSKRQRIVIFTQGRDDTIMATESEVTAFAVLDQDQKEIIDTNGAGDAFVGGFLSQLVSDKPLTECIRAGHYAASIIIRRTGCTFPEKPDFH
SW480 colon carcinoma cells lysate proteins (Homo sapiens, UniProt P07355), sequence (P07355 whole entry): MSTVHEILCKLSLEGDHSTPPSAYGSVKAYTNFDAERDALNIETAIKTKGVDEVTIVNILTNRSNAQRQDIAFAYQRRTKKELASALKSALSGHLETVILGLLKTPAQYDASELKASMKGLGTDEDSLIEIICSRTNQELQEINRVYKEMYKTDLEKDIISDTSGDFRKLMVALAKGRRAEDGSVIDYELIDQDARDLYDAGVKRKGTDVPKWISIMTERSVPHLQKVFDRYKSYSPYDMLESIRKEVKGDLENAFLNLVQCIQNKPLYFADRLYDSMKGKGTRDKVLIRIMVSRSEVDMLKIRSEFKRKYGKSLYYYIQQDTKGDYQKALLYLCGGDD
SW480 colon carcinoma cells lysate proteins (Homo sapiens, UniProt P38646), sequence (P38646 47-679): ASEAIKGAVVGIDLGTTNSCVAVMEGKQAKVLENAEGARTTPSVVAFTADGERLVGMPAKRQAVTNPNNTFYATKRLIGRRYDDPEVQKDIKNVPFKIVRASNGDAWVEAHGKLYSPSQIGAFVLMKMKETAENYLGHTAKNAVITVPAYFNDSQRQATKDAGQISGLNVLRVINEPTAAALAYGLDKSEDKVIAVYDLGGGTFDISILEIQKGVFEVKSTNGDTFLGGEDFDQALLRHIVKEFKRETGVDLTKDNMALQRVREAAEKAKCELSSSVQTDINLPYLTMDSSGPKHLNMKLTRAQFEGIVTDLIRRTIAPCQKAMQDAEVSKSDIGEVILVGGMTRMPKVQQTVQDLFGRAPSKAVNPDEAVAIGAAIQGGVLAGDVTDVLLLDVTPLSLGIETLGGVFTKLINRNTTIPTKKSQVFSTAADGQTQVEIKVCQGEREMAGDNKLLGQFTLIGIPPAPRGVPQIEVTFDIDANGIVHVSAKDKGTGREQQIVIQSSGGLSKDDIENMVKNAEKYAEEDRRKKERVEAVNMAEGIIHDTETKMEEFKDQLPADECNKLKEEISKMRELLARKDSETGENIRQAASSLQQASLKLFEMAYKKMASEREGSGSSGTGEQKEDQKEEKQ
SW480 colon carcinoma cells lysate proteins (Homo sapiens, UniProt P12814), sequence (P12814 whole entry): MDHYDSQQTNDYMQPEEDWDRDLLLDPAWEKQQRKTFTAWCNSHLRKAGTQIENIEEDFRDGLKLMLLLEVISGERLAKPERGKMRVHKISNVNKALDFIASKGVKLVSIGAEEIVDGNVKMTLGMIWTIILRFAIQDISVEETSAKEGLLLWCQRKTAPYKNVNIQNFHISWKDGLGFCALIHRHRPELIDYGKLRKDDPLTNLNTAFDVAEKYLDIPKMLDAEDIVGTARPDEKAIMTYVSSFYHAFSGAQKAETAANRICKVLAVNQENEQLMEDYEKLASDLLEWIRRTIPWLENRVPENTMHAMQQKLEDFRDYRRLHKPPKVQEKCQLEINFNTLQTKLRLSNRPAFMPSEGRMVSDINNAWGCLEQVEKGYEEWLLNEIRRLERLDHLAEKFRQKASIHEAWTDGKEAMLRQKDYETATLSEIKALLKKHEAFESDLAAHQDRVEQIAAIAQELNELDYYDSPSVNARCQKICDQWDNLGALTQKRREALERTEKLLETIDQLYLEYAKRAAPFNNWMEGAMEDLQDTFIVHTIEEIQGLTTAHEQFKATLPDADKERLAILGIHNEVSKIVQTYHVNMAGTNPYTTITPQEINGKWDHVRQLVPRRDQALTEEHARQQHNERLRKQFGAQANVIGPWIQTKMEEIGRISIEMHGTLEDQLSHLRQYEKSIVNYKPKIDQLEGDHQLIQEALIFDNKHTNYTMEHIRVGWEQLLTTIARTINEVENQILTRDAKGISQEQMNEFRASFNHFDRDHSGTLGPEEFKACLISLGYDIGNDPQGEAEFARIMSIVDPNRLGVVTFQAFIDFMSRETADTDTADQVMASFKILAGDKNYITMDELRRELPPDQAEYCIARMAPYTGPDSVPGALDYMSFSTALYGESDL
SW480 colon carcinoma cells lysate proteins (Homo sapiens, UniProt P30153), sequence (P30153 whole entry): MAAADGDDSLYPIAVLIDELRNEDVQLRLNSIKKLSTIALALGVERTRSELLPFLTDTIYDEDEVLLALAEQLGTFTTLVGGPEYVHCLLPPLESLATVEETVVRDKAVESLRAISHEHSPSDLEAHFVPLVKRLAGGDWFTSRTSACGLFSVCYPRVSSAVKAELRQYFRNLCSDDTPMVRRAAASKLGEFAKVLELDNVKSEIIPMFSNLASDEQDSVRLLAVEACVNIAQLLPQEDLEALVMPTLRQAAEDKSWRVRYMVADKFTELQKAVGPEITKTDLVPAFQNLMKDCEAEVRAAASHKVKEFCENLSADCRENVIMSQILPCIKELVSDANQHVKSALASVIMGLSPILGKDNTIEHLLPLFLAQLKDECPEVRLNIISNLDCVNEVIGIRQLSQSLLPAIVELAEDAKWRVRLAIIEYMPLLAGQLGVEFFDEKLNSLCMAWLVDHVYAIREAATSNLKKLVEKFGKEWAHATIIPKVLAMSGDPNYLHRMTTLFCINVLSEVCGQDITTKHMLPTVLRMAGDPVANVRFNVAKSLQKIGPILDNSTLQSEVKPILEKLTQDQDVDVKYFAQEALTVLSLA

C[C@H](Oc1cc(-c2cnn(C3CCNCC3)c2)cnc1N)c1c(Cl)ccc(F)c1Cl [(5)-crizotinib]
AvgP [1]: 0.41
SC.Exp. 1-1 [1]: 13
SC.Exp. 1-2 [1]: 13
SC.Exp. 2-1 [1]: 0
SC.Exp. 2-2 [1]: 0
Sum (SC.Exp.) [1]: 26
AvgP [2]: 0.4332
SC.Exp. 1-1 [2]: 9
SC.Exp. 1-2 [2]: 6
SC.Exp. 2-1 [2]: 0
SC.Exp. 2-2 [2]: 0
Sum (SC.Exp.) [2]: 15
AvgP [3]: 0.2142
SC.Exp. 1-1 [3]: 3
SC.Exp. 1-2 [3]: 1
SC.Exp. 2-1 [3]: 0
SC.Exp. 2-2 [3]: 0
Sum (SC.Exp.) [3]: 4
AvgP [4]: 0.4156
SC.Exp. 1-1 [4]: 3
SC.Exp. 1-2 [4]: 3
SC.Exp. 2-1 [4]: 0
SC.Exp. 2-2 [4]: 0
Sum (SC.Exp.) [4]: 6
AvgP [5]: 0.4042
SC.Exp. 1-1 [5]: 3
SC.Exp. 1-2 [5]: 3
SC.Exp. 2-1 [5]: 0
SC.Exp. 2-2 [5]: 0
Sum (SC.Exp.) [5]: 6
AvgP [6]: 0.3567
SC.Exp. 1-1 [6]: 2
SC.Exp. 1-2 [6]: 3
SC.Exp. 2-1 [6]: 0
SC.Exp. 2-2 [6]: 0
Sum (SC.Exp.) [6]: 5
AvgP [7]: 0.4613
SC.Exp. 1-1 [7]: 4
SC.Exp. 1-2 [7]: 3
SC.Exp. 2-1 [7]: 0
SC.Exp. 2-2 [7]: 0
Sum (SC.Exp.) [7]: 7
AvgP [8]: 0
SC.Exp. 1-1 [8]: 1
SC.Exp. 1-2 [8]: 1
SC.Exp. 2-1 [8]: 0
SC.Exp. 2-2 [8]: 0
SC.Exp. Sum [8]: 2
AvgP [9]: 0.3413
SC.Exp. 1-1 [9]: 3
SC.Exp. 1-2 [9]: 2
SC.Exp. 2-1 [9]: 0
SC.Exp. 2-2 [9]: 0
Sum (SC.Exp.) [9]: 5
